In patent US20260001888A1, “PYRAZOLOPYRIMIDINE PDE9 INHIBITORS” (Merck Sharp & Dohme LLC, priority 2018, published 2026):

Target: Human PDE9 (PDE9A2) (Homo sapiens (Human), UniProt O76083)
Assay: PDE9 IMAP fluorescence polarization (FP) inhibition assay
Assay type: biochemical
Conditions: apparent inhibition constant; human PDE9A2, FAM-cGMP substrate 50 nM, room temperature
Procedure: The activity of the compounds in accordance with the present invention as PDE9 inhibitors may be readily determined without undue experimentation using a fluorescence polarization (FP) methodology that is well known in the art (Huang, W., et al., J. Biomol Screen, 2002, 7:215).
In a typical experiment the PDE9 inhibitory activity of the compounds of the present invention was determined in accordance with the following experimental method.
Human PDE9 (PDE9A2, GenBank Accession No. NM_001001567), full length with N-terminal GST tag, was purchased from BPS Bioscience. The fluorescence polarization assay for cyclic nucleotide phosphodiesterases was performed using an IMAP® FP kit supplied by Molecular Devices, Sunnyvale, CA (product #R8139). IMAP® technology has been applied previously to phosphodiesterase assays (Huang, W., et al., J. Biomol Screen, 2002, 7:215). Assays were performed at room temperature in 384-well microtiter plates with an incubation volume of 20.2 μL. Solutions of test compounds were prepared in DMSO and serially diluted with DMSO to yield 8 μL of each of 10 solutions differing by 3-fold in concentration, at 32 serial dilutions per plate. 100% inhibition is determined using a known PDE9 inhibitor, such as 1-(2-chlorophenyl)-6-[(2R)-3,3,3-trifluoro-2-methylpropyl]-1,5-dihydro-4H-pyrazolo[3,4-d]pyrimidine-4-one (BAY 73-6691) (Wunder et al, Mol. Pharmacol., 2005, 68 (6): 1775-81), (6-[(3S,4S)-4-methyl-1-(pyrimidin-2-ylmethyl) pyrrolidin-3-yl]-1-(tetrahydro-2H-pyran-4-yl)-1,5-dihydro-4H-pyrazolo[3,4-d]pyrimidin-4-one (PF-04447943) (Wager et al., ACS Chemical Neuroscience, 2010, 1:435-449). 0% of inhibition is determined by using DMSO (1% final concentrations). A Labcyte Echo 555 (Labcyte, Sunnyvale, CA) is used to dispense 200 nL from each well of the titration plate to the 384 well assay plate. Human PDE9A2 membrane preps were diluted to 1 ng/ml. […] PDE9 enzyme mix and compounds were mixed and incubated at room temperature for 30 min. Following which, FAMcGMP substrate was added, shaken and incubated for an additional 60 min at room temperature. The final concentration of human PDE9 membrane preparations were 0.5 ng/ml. The final concentration of FAM-cGMP was 50 nM. After the incubation period, the enzymatic reaction was stopped by addition of binding solution (IMAP-FP, Molecular Devices, comprised of 80% Solution A, 20% Solution B and a 1:600 dilution of binding reagent) to each well. The plates were shaken then incubated at room temperature for 1 h prior to determining the fluorescence polarization (mP) using a Perkin Elmer En Vision™ plate reader (Waltham, MA).
Fluorescence polarization (mP) was calculated from the parallel(S) and perpendicular (P) fluorescence of each sample well and the analogous values for the median control well, containing only substrate (So and Po), using the following equation: […]
Dose-inhibition profiles for each compound were characterized by fitting the mP data to a four-parameter equation given below. The apparent inhibition constant (KI), the maximum inhibition at the low plateau relative to “100% Inhibition Control” (Imax; e.g. 1=>same as this control), the minimum inhibition at the high plateau relative to the “0% Inhibition Control” (Imin, e.g. 0=>same as the no drug control) and the Hill slope (nH) are determined by a non-linear least squares fitting of the mP values as a function of dose of the compound using an in-house software based on the procedures described by Mosser et al., JALA, 2003, 8:54-63, using the following equation: […]
An apparent (Km) for FAM-labeled […] of 150 nM was determined in separate experiments through simultaneous variation of substrate and selected drug concentrations.

Chain of Human PDE9 (PDE9A2) (O76083 other isoform, or with tags, fused parts or gaps): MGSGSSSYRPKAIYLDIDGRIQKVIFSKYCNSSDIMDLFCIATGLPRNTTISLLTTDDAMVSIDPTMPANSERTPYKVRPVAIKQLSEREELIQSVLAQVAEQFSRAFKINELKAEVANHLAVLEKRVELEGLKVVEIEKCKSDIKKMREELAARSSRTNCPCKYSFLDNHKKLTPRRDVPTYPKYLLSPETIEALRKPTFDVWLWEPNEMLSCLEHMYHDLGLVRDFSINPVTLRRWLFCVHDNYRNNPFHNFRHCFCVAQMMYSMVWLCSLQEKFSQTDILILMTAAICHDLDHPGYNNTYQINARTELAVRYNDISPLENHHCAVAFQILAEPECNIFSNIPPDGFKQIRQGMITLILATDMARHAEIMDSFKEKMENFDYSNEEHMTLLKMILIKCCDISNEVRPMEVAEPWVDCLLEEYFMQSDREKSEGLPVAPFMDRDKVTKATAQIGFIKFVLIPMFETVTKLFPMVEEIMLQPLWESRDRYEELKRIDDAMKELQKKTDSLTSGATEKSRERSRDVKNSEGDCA

| Compound | Ki [nM] |
| --- | --- |
| CCC(c1ncccn1)N(C)c1nc2c(c(C#N)nn2C(C)c2ccc(C(F)(F)F)nc2)c(=O)[nH]1 (single isomer, unassigned) [Example 9, 6-[methyl(1-pyrimidin-2-ylpropyl)amino]-4-oxo-1-[1-[6-(trifluoromethyl)-3-pyridyl]ethyl]-5H-pyrazolo[3,4-d]pyrimidine-3-carbonitrile] | 0.14 |
| CCC(c1ncc(F)cn1)N(C)c1nc2c(c(C#N)nn2C(C)C2CCOCC2)c(=O)[nH]1 (single isomer, unassigned) [Example 40, 6-[1-(5-fluoropyrimidin-2-yl)propyl-methyl-amino]-4-oxo-1-(1-tetrahydropyran-4-ylethyl)-5H-pyrazolo[3,4-d]pyrimidine-3-carbonitrile] | 33.2 |
| CCC(c1ncc(C(F)F)cn1)N(C)c1nc2c(c(C#N)nn2C(C)c2ccc(C(F)(F)F)nc2)c(=O)[nH]1 (single isomer, unassigned) [Example 17, 6-[1-[5-(difluoromethyl)pyrimidin-2-yl]propyl-methyl-amino]-4-oxo-1-[1-[6-(trifluoromethyl)-3-pyridyl]ethyl]-5H-pyrazolo[3,4-d]pyrimidine-3-carbonitrile] | 0.01 |
| CCC(c1ncc(F)cn1)N(C)c1nc2c(c(C#N)nn2C(C)c2ccc(C3CC3)nc2)c(=O)[nH]1 (single isomer, unassigned) [Example 64, 1-[1-(6-cyclopropyl-3-pyridyl)ethyl]-6-[1-(5-fluoropyrimidin-2-yl)propyl-methyl-amino]-4-oxo-5H-pyrazolo[3,4-d]pyrimidine-3-carbonitrile] | 11.9 |
| CC(c1ccc(C(F)(F)F)nc1)n1nc(C#N)c2c(=O)[nH]c(N(C)C(c3ncccn3)C3CC3)nc21 (single isomer, unassigned) [Example 26, 6-[[cyclopropyl(pyrimidin-2-yl)methyl]-methyl-amino]-4-oxo-1-[1-[6-(trifluoromethyl)-3-pyridyl]ethyl]-5H-pyrazolo[3,4-d]pyrimidine-3-carbonitrile] | 52.9 |
| CC(c1ccc(C(F)(F)F)nc1)n1nc(C#N)c2c(=O)[nH]c(N3CCCC3c3ncccn3)nc21 (single isomer, unassigned) [Example 56, 4-oxo-6-(2-pyrimidin-2-ylpyrrolidin-1-yl)-1-[1-[6-(trifluoromethyl)-3-pyridyl]ethyl]-5H-pyrazolo[3,4-d]pyrimidine-3-carbonitrile] | 289 |
| CCC(c1ncc(F)cn1)N(C)c1nc2c(c(C#N)nn2C(C)C2CCOCC2)c(=O)[nH]1 (single isomer, unassigned) [Example 39, 6-[1-(5-fluoropyrimidin-2-yl)propyl-methyl-amino]-4-oxo-1-(1-tetrahydropyran-4-ylethyl)-5H-pyrazolo[3,4-d]pyrimidine-3-carbonitrile] | 0.17 |
| CC(c1ccc(C(F)(F)F)nc1)n1nc(C#N)c2c(=O)[nH]c(N3CCCC3c3ncccn3)nc21 (single isomer, unassigned) [Example 54, 4-oxo-6-(2-pyrimidin-2-ylpyrrolidin-1-yl)-1-[1-[6-(trifluoromethyl)-3-pyridyl]ethyl]-5H-pyrazolo[3,4-d]pyrimidine-3-carbonitrile] | 6.53 |
| CC(c1ccc(C(F)(F)F)nc1)n1nc(C#N)c2c(=O)[nH]c(N(C)C(c3ncccn3)C3CC3)nc21 (single isomer, unassigned) [Example 27, 6-[[cyclopropyl(pyrimidin-2-yl)methyl]-methyl-amino]-4-oxo-1-[1-[6-(trifluoromethyl)-3-pyridyl]ethyl]-5H-pyrazolo[3,4-d]pyrimidine-3-carbonitrile] | 6.67 |
| CC(c1ccc(C(F)(F)F)nc1)n1nc(C#N)c2c(=O)[nH]c(N3CCC3c3ncccn3)nc21 (single isomer, unassigned) [Example 48, 4-oxo-6-(2-pyrimidin-2-ylazetidin-1-yl)-1-[1-[6-(trifluoromethyl)-3-pyridyl]ethyl]-5H-pyrazolo[3,4-d]pyrimidine-3-carbonitrile] | 17.4 |
| C=CCCC(c1ncccn1)N(C)c1nc2c(c(C#N)nn2C(C)c2ccc(C(F)(F)F)nc2)c(=O)[nH]1 (single isomer, unassigned) [Example 44, 6-[methyl(1-pyrimidin-2-ylpent-4-enyl)amino]-4-oxo-1-[1-[6-(trifluoromethyl)-3-pyridyl]ethyl]-5H-pyrazolo[3,4-d]pyrimidine-3-carbonitrile] | 19.6 |

Results, then the compound that gave them:

| Ki [nM] | Compound |
| --- | --- |
| 0.25 | CCC(Nc1nc2c(c(C#N)nn2C(C)c2ccc(C(F)(F)F)nc2)c(=O)[nH]1)c1ncccn1 (single isomer, unassigned) [Example 73, 4-Oxo-6-((1-(pyrimidin-2-yl)propyl)amino)-1-(1-(6-(trifluoromethyl)pyridin-3-yl)ethyl)-4,5-dihydro-1H-pyrazolo[3,4-d]pyrimidine-3-carbonitrile] |
| 2.3 | CC(c1ncccn1)N(C)c1nc2c(c(C#N)nn2C(C)c2ccc(C(F)(F)F)nc2)c(=O)[nH]1 (single isomer, unassigned) [Example 5, 6-[methyl(1-pyrimidin-2-ylethyl)amino]-4-oxo-1-[1-[6-(trifluoromethyl)-3-pyridyl]ethyl]-5H-pyrazolo[3,4-d]pyrimidine-3-carbonitrile] |
| 243 | CC(c1ncccn1)N(C)c1nc2c(c(C#N)nn2C(C)c2ccc(C(F)(F)F)nc2)c(=O)[nH]1 (single isomer, unassigned) [Example 8, 6-[methyl(1-pyrimidin-2-ylethyl)amino]-4-oxo-1-[1-[6-(trifluoromethyl)-3-pyridyl]ethyl]-5H-pyrazolo[3,4-d]pyrimidine-3-carbonitrile] |
| 120 | CC(c1ccc(C(F)(F)F)nc1)n1nc(C#N)c2c(=O)[nH]c(CCc3ncccn3)nc21 (single isomer, unassigned) [Example 80, 4-oxo-6-(2-(pyrimidin-2-yl)ethyl)-1-(1-(6-(trifluoromethyl)pyridin-3-yl)ethyl)-4,5-dihydro-1H-pyrazolo[3,4-d]pyrimidine-3-carbonitrile] |
| 39 | CCC(c1ncccn1)N(C)c1nc2c(c(C#N)nn2C(C)c2ccc(C(F)(F)F)nc2)c(=O)[nH]1 (single isomer, unassigned) [Example 12, 6-[methyl(1-pyrimidin-2-ylpropyl)amino]-4-oxo-1-[1-[6-(trifluoromethyl)-3-pyridyl]ethyl]-5H-pyrazolo[3,4-d]pyrimidine-3-carbonitrile] |
| 16.2 | CC(c1ccc(C(F)(F)F)nc1)n1nc(C#N)c2c(=O)[nH]c(CCc3ncc(C4CC4)cn3)nc21 (single isomer, unassigned) [Example 82, 6-(2-(5-cyclopropylpyrimidin-2-yl)ethyl)-4-oxo-1-(1-(6-(trifluoromethyl)pyridin-3-yl)ethyl)-4,5-dihydro-1H-pyrazolo[3,4-d]pyrimidine-3-carbonitrile] |
| 111 | CC(Cc1nc2c(c(C#N)nn2C(C)c2ccc(C(F)(F)F)nc2)c(=O)[nH]1)c1ncccn1 (single isomer, unassigned) [Example 84, 4-oxo-6-(2-(pyrimidin-2-yl)propyl)-1-(1-(6-(trifluoromethyl)pyridin-3-yl)ethyl)-4,5-dihydro-1H-pyrazolo[3,4-d]pyrimidine-3-carbonitrile] |
| 28 | CCC(Cc1nc2c(c(C#N)nn2C(C)c2ccc(C(F)(F)F)nc2)c(=O)[nH]1)c1ncccn1 (single isomer, unassigned) [Example 90, 4-oxo-6-(2-(pyrimidin-2-yl)butyl)-1-(1-(6-(trifluoromethyl)pyridin-3-yl)ethyl)-4,5-dihydro-1H-pyrazolo[3,4-d]pyrimidine-3-carbonitrile] |
